Measurements as given in ChEMBL document CHEMBL1201862, “PubChem BioAssay data set” (2004).
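Cells were grown in 96-well plates and exposed to each compound for 48 hours at five concentrations; endpoints were interpolated linearly between bracketing concentrations, or set to the highest concentration if not reached. GI50: concentration for 50% inhibition of growth.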 Active and inactive are the calls of the source. Cut-off read from the data, not from the text of the source: active = GI50 up to about 1.1 µM and inactive = higher.

Key:
Assay in all cases: NCI anticancer screen, dose series, 48 h
[1] = system: SF-295
[2] = system: A549
[3] = system: RPMI-8226
[4] = system: SF-539
[5] = system: HOP-62
[6] = system: BT-549
[7] = system: UO-31
[8] = system: UACC-62
[9] = system: SK-MEL-5
[10] = system: T47D
[11] = system: MDA-N
[12] = system: DU-145
[13] = system: EKVX
[14] = system: HL-60
[15] = system: TK-10
[16] = system: OVCAR-4
[17] = system: HCC 2998

Measured: GI50

CCCC1C2=C(C(=O)OC2=O)C2C(CC)CC3=C(C(=O)OC3=O)C12 (centres undefined)
inactive: [1] > 100 µM | [2] > 100 µM | [3] > 100 µM | [4] > 100 µM | [5] > 100 µM | [6] > 100 µM | [7] > 100 µM | [8] > 100 µM | [9] > 100 µM | [10] > 100 µM | [11] > 100 µM | [12] > 100 µM | [13] > 100 µM | [14] > 100 µM | [15] > 100 µM

CCNC(=O)c1cc(Cl)ccc1NC(=O)C12CC3CC(CC(C3)C1)C2
inactive: [1] 52.1 µM | [2] 37.2 µM | [3] 24.5 µM | [4] > 100 µM | [16] 36.1 µM | [5] 30.1 µM | [6] 36.6 µM | [7] 22.3 µM | [9] 30.1 µM | [10] 34.5 µM | [11] 22.5 µM | [12] 28.4 µM | [13] 21.4 µM | [14] 25.5 µM | [15] 52.8 µM

Cc1cc2c(cc1-c1cc3c(cc1C)C(C(C)C)=C(O)C(=O)/C3=C\Nc1nc(-c3ccccc3)cs1)/C(=C/Nc1nc(-c3ccccc3)cs1)C(=O)C(O)=C2C(C)C
inactive: [1] 15.6 µM | [2] 19.1 µM | [3] 33.9 µM | [4] 18.2 µM | [16] 30.8 µM | [5] 15.2 µM | [6] 23.8 µM | [7] > 10 µM | [8] 16.7 µM | [9] 16.7 µM | [10] 31.9 µM | [11] 41.1 µM | [12] 23.7 µM | [13] 18.2 µM | [14] 25.7 µM

CCOC(=O)c1cc(C2CCN(Cc3ccccc3)C2=O)c(C(=O)C(=[N+]=[N-])C(C)=O)[nH]1 (centres undefined)
inactive: [1] > 100 µM | [2] > 100 µM | [17] > 100 µM | [3] > 100 µM | [4] > 100 µM | [16] > 100 µM | [5] > 100 µM | [6] > 100 µM | [7] > 100 µM | [8] > 100 µM | [9] > 100 µM | [10] > 100 µM | [12] > 100 µM | [13] > 100 µM | [14] > 100 µM

Cc1cc(-c2nc3c(F)cccc3s2)ccc1N
inactive: [1] 41.2 µM | [2] 49.3 µM | [3] 26.9 µM | [5] 62.5 µM | [6] 66.1 µM | [7] 12.4 µM | [8] 21 µM | [9] 62.2 µM | [11] 70.1 µM | [12] 52.4 µM | [13] 2.42 µM | [14] 43.8 µM

CC1(C)OC2OC(C(COS(=O)(=O)C(F)(F)F)N=[N+]=[N-])C(OC(=O)c3ccccc3)C2O1 (centres undefined)
inactive: [1] > 100 µM | [2] > 100 µM | [17] > 100 µM | [4] > 100 µM | [16] > 100 µM | [5] > 100 µM | [6] > 100 µM | [7] > 100 µM | [8] > 100 µM | [9] > 100 µM | [11] > 100 µM | [12] > 100 µM | [13] > 100 µM | [14] > 100 µM | [15] > 100 µM

CCOP(=O)(/C=C/n1cnc2c(=O)n(C(C)=O)c(N)nc21)OCC
inactive: [1] > 100 µM | [2] > 100 µM | [3] > 100 µM | [4] > 100 µM | [16] > 100 µM | [5] > 100 µM | [6] > 100 µM | [8] > 100 µM | [9] > 100 µM | [10] > 100 µM | [11] > 100 µM | [12] > 100 µM | [13] > 100 µM | [14] > 100 µM | [15] > 100 µM

COC(=O)CC1(O)C(C=C(C)C)C(C(=O)OC)C(=O)C(C(=O)OC)C1C(=O)OC (centres undefined)
inactive: [1] > 100 µM | [2] > 100 µM | [17] > 100 µM | [3] > 100 µM | [4] > 100 µM | [16] > 100 µM | [5] > 100 µM | [6] 11.4 µM | [7] > 100 µM | [8] > 100 µM | [9] > 100 µM | [11] > 100 µM | [12] > 100 µM | [13] > 100 µM | [14] > 100 µM | [15] > 100 µM

CN(C)CCNC1=Nc2ccccc2C(=O)N2CSCC12 (centres undefined)
inactive: [1] > 100 µM | [2] > 100 µM | [17] > 100 µM | [3] > 100 µM | [16] > 100 µM | [5] > 100 µM | [6] > 100 µM | [7] > 100 µM | [8] > 100 µM | [9] > 100 µM | [10] > 100 µM | [11] > 100 µM | [12] > 100 µM | [13] > 100 µM | [15] > 100 µM

COC(=O)C1=C(O)CCCC(C2CCCCC(=O)C2C(=O)OC)=C1 (centres undefined)
inactive: [1] 48 µM | [2] 44.3 µM | [17] 33.5 µM | [3] 56.1 µM | [4] 24.5 µM | [16] > 100 µM | [6] 78.9 µM | [7] > 100 µM | [8] 19.4 µM | [9] 62.4 µM | [10] 39.4 µM | [11] > 100 µM | [12] 29.9 µM | [13] 67.3 µM | [15] > 100 µM

CC1=CC(O)(c2ccccc2)C(N2CCOCC2)N1O (centres undefined)
inactive: [1] > 100 µM | [2] > 100 µM | [17] > 100 µM | [3] > 100 µM | [4] > 100 µM | [16] > 100 µM | [5] > 100 µM | [6] > 100 µM | [7] > 100 µM | [9] > 100 µM | [10] > 100 µM | [11] > 100 µM | [13] > 100 µM | [15] > 100 µM

CC12CCC3c4ccc(O)cc4CCC3C1C/C(=N\O)C2O (centres undefined)
inactive: [1] > 100 µM | [2] > 100 µM | [3] 85.1 µM | [4] 85.1 µM | [16] > 100 µM | [5] > 100 µM | [6] > 100 µM | [7] > 100 µM | [8] > 100 µM | [9] > 100 µM | [10] > 100 µM | [11] > 100 µM | [12] > 100 µM | [13] 26.8 µM | [14] 92.9 µM | [15] 45.4 µM

CC(C)(C)OC(=O)NC(Cc1ccccc1)C(=O)OCN1C(=O)C2C3C=CC(C2C1=O)C1C2C(=O)N(COC(=O)C(Cc4ccccc4)NC(=O)OC(C)(C)C)C(=O)C2C31 (centres undefined)
inactive: [1] 34.4 µM | [2] 8.28 µM | [17] 40 µM | [3] 18.8 µM | [4] 42.4 µM | [16] 37.1 µM | [5] 30.4 µM | [6] 18.6 µM | [7] 19.5 µM | [8] 44.8 µM | [9] 28 µM | [10] 36.3 µM | [12] 41.6 µM | [13] 23.6 µM | [14] 30.7 µM | [15] 31 µM
